Here are results for 1 compound from PMC6982022 (International Journal of Molecular Sciences, 2019).

Each structure is given as a SMILES string. Values joined by “and” are separate entries in the source; they are usually repeats but may differ in a detail not shown here. Equal entries are not always repeated. Where two headings read alike, the source gives them in different places.

One data set concerns CGT. The conditions noted are these: cited from earlier work.
The test system of data set [1] is C57BL6J mice. In words: Epididymal sperm acrosome morphology (FITC-PSA staining) after 35 days oral dosing. In kind it is in vivo, mouse. The following applies: for Sperm morphology Abnormal, average (%) / Sperm morphology Normal, average (%): six mice/group. How it is done:
(§1) Groups of six mice, each, were used for three different doses of NB-DNJ or NB-DGJ formulated in milliQ water at 50 mg/kg, 25 mg/kg and 15 mg/kg, respectively. Control groups were given an equivalent volume of water. Animals were given compound or control once daily for 35 consecutive days via oral gavage using animal feeding needles (Biomedical Needles, Popper, NY, USA). Body weight was noted every week for all treatment groups. Mice were euthanized at the end of a 35 days dosing regimen using CO2 asphyxia followed by cervical dislocation. Testes were harvested, weighed and stored in Bouin’s fixative for 48 h, then sliced into two halves, and stored in fresh Bouin’s for another 24 h. The tissue slices were then rinsed in 70% ethanol and processed and stained for histology using a standard protocol for Hematoxylin and eosin staining. Spermatids with elongated and abnormally shaped heads were counted per 20 fields and average number calculated for 6 mice/group.
For sperm retrieval, epididymis was removed from the animal and placed in Petri dish. One mL of capacitation buffer (Capacitation buffer consisted of 110 mM NaCl, 2.68 mM KCl, 0.36 mM NaH2PO4, 25 mM NaHCO3, 0.49 mM MgCl2, 2.40 mM CaCl2, 25 mM HEPES, 5.50 mM Glucose, 1 mM Pyruvic acid, pH 7.4; Tash and Bracho, 1998) at room temperature was added to the dish. Using forceps, the caput of the epididymis was held in place and the cauda sliced repeatedly with a razor blade. The spermatozoa were allowed to disperse for 15 min with gentle swirling intermittently. A 100 µL aliquot of the sperm suspension was dropped onto a standard glass microscope slide (Fisherbrand superfrost microscope slides 25 × 75 × 1.0 mm)) and smeared with side of pipette tip. The slides were air dried flat for 1 h at room temperature. The sperm smear was fixed in methanol for 2 min. The sperm smear was than stained using FITC-PSA (Fluorescein isothiocyanate Pisum Sativum Agglutinin; Vector Laboratories, Burlingame, CA) was diluted 1:7000 in PBS containing 1:10,000 DAPI dihydrochloride, FluoroPure™ grade, Invitrogen) (≥98% pure) to make the stock solution. To each slide, 100 µL of FITC-PSA was added and spread out with edge of pipette tip to cover the dried sperm smear. The slides were incubated at 37 °C for 10 min, and then washed with 5 changes of PBS for 5 min each. The slides were air-dried and mounted with 20 µL Vectashield mounting medium for fluorescence (Vector Laboratories, Burlingame, CA, USA) and observed. Slides were viewed on a Nikon IX-81 microscope under a 40× objective using FITC and DAPI filter to visualize acrosome morphology. The phase contrast images were also collected at the same magnification to compare morphological details.

The next data set concerns adult male CD rats. The data set is described as follows: Parameters measured at necropsy at end of fertility trial (week 11). In kind it is in vivo, rat. The source says: Rats were weighed on day 0 (first day of dosing) and weekly thereafter. Dosages were adjusted based on the most recent body weight. Males were cohabited with untreated females (one male per two females) weekly at weeks 1 through 9 [38, 39]. Females were necropsied seven days after separation from males to determine the numbers of implantation sites. Individual male rats were bled from the tail vein at weeks 0, 1, 4, and 7 and serum was harvested by centrifugation. At week 11, the male rats were weighed, anesthetized, and exsanguinated. Sera were analyzed for inhibin B by ELISA (enzyme-linked immunosorbent assay), and rat follicle stimulating hormone (rFSH) and testosterone by radioimmunoassay. Testes, epididymides, ventral prostates, and seminal vesicles were excised and weighed. The left testis was homogenized, and spermatid head counts obtained.
Sperm were obtained from the left cauda epididymis and evaluated for sperm motility, as follows. The cauda epididymis was punctured with an 18-gauge needle and sperm expressed into the well of a culture slide. The sperm were diluted with capacitation buffer containing 0.1% BSA to obtain about 20–40 sperm per field as viewed in the inverted microscope. The number of motile and non-motile sperm was determined, and the percent of motile sperm were calculated. A smear of the diluted sperm was also prepared and used to assess sperm morphology under phase contrast. The percent of normal/abnormal sperm were calculated.
Statistical analysis using the Student’s t-test was performed on body weights, paired testes weights, ventral prostrate weights, seminal vesicle weights, paired epididymal weights, spermatid head counts, percent motile and normal epididymal sperm. We used analysis of variance (ANOVA) for serum inhibin B, rFSH, and testosterone, since these measurements were repeated throughout the study period. The effect of NB-DNJ at 15 mg/kg/day dose in the rat model was studied following the same protocol as that for NB-DGJ.

The subject of data set [2] is C57BL6J mice. In words: Testis histology (H&E) after 35 days oral dosing. In kind it is in vivo, mouse. The conditions noted are these: 15, 25 or 50 mg/kg, oral daily. The protocol:
as §1

Setting [3] is: 150 mg/kg/day on days 0-34, week 11, n = 6.

Broadly, the IC50 is the concentration at which inhibition is half-maximal. Regarding `CCCCN1C[C@H](O)[C@@H](O)[C@@H](O)[C@H]1CO` [NB-DGJ, N-butyldeoxygalactonojirimycin], the IC50 in the data set with CGT (ref 20) was 41.4 µM. Further, the IC50 in the data set on CGT (ref 36) is 10 µM. Moreover, in the data set with C57BL6J mice [1] (15 mg/kg oral daily), the “Sperm morphology Abnormal, average (%)” value was found to be 51.59% and the “Sperm morphology Normal, average (%)” value was determined as 48.4%. Also, in the data set with C57BL6J mice [1] (25 mg/kg oral daily), the “Sperm morphology Abnormal, average (%)” value was found to be 62.05% and the “Sperm morphology Normal, average (%)” value is given as 37.85%. Further, in the data set on C57BL6J mice [1] (50 mg/kg oral daily), the “Sperm morphology Abnormal, average (%)” value stood at 88.21% and the “Sperm morphology Normal, average (%)” value is 11.78%. For the same compound, in the data set on C57BL6J mice [1] (15, 25 and 50 mg/kg oral daily), the “Sperm acrosome morphology (in words)” value is given as “dose-dependent increase in the number of abnormal spermatozoa”. For the same compound, in the data set on adult male CD rats (150 mg/kg/day on days 0-34, n = 6), the “Final Body Weight Week 11 (g ± SE)” value came out at 572 ± 17 g. In addition, the “Ventral prostate weight versus vehicle” value in the data set with adult male CD rats (150 mg/kg/day on days 0-34, week 11, Student's t-test) is “No significant difference”. Also, in the data set with adult male CD rats (setting [3]), the “Mean Epididymal Sperm Motility (%)” value was 60% and 60 ± 3 %; the “Mean Epididymal Sperm with Normal Morphology (% ± SE)” value is 72 ± 1 %; the “Mean Paired Epididymal Weight (g ± SE)” value came to 1.64 ± 0.03 g; the “Mean Paired Testis Weight (g ± SE)” value is 3.80 ± 0.11 g. In the data set with adult male CD rats (setting [3]), the “Mean Seminal Vesicle Weight with Coagulating Gland” value worked out at 1.40 ± 0.11 g and the “Mean Spermatid Head Count/Testis” value was 123.59 ± 3.73 Cells × 10^6. The “Testis histology, spermatid heads (in words)” value in the data set on C57BL6J mice [2] is reported as “rounded, abnormally shaped spermatid heads”.
